Assay results: patent US6413912B2, “Azoline derivatives” (Syngenta Crop Protection, Inc., priority 1997, dated 2002)

Tests used:
[1] = tested on: Heliothis virescens caterpillars; experiment: Effect on Heliothis virescens caterpillars (Example B4); type: in vivo; details: soya plants sprayed with 400 ppm, first stage caterpillars, six days later
Method: Example B4: Effect on Heliothis virescens caterpillars
(§1) Young soya plants are sprayed with an aqueous emulsion containing 400 ppm of active ingredient. After drying of the spray deposit, the soya plants are inoculated with 10 first stage caterpillars of Heliothis virescens and transferred to a plastic container. Six days later they are evaluated. The percentage reduction of the population (% response) is determined by comparing the number of dead caterpillars and the extent of feeding damage on the treated plants with those on the untreated plants.

Heliothis virescens [2] = experiment: Ovocidal/larvicidal effect on Heliothis virescens (Example B6); type: in vivo; details: eggs on cotton sprayed with 400 ppm, after 8 days
Source text: Example B6: Ovocidal/larvicidal effect on Heliothis virescens
Eggs of Heliothis virescens laid on cotton are sprayed with an aqueous emulsion containing 400 ppm of active ingredient. After 8 days, the percentage hatching rate of the eggs and the survival rate of the caterpillars are compared with those for untreated controls (% reduction of population)

[3] = tested on: Diabrotica balteata larvae; experiment: Effect on Diabrotica balteata larvae (Example B2); type: in vivo; details: corn seedlings sprayed with 400 ppm, second stage larvae, six days later
Method: Example B2: Effect on Diabrotica balteata larvae
as §1, with “Corn seedlings” for “Young soya plants”, “corn seedlings” for “soya plants”, “second” for “first”, “larvae” for “caterpillars”, “Diabrotica balteata” for “Heliothis virescens”, “larvae” for “caterpillars and the extent of feeding damage”

Heliothis virescens [4] = experiment: Ovicidal effect on Heliothis virescens (Example B1); type: in vivo; details: eggs immersed in 400 ppm test solution, after 6 days, vs untreated controls
Method: Example B1: Ovicidal effect on Heliothis virescens
Eggs of Heliothis virescens laid on filter paper are immersed for a short time in an acetonic aqueous test solution containing 400 ppm of the active ingredient to be tested. After drying of the test solution, the eggs are incubated in Petri dishes. After 6 days, the percentage hatching rate of the eggs is compared with that for untreated controls (% reduction in hatching rate).

Dermanyssus gallinae = experiment: In vitro effect on Dermanyssus gallinae (Example B10); details: ranking among test substances
Method: Example B10: In vitro effect on Dermanyssus gallinae
Ten engorged female mites of the genus Dermanyssus gallinae fixed on a plastic adhesive film are brought into contact with 50 μl of an aqueous suspension or emulsion of the test substance. The test is carried out with concentrations of 32, 10, 3.2, 1.0, 0.32 to 0.0001 ppm. After drying, the film is stuck onto a glass disc. This creates a kind of air bubble around each mite, the lower surface of which is formed by the glass disc and the upper surface by a bulging of the adhesive film. This bubble contains sufficient air for the mite to avoid suffocating. After 5 days, the effect of the test substance is evaluated with the aid of a stereomicroscope by assessing the effect on mortality, egg deposition, egg quality, hatching rate, pupation rate, and development of protonymphs according to the following 4 criteria:
1. if 9 to 10 mites are dead, this indicates a lethal effect;
3. if 2 or more mites survive and produce eggs, but no larvae hatch from these eggs and no protonymphs develop, this indicates a development-inhibiting effect;
4. if 2 or more mites survive and lay the usual number of normal eggs, from which larvae hatch and develop into protonymphs, this indicates no activity.

[5] = tested on: Panonychus ulmi (resistant to organophosphates und carbaryl); experiment: Effect on Panonychus ulmi (Example B8); type: in vivo; details: apple seedlings sprayed with 400 ppm, after 14 days
Method: Example B8: Effect on Panonychus ulmi (resistant to organophosphates und carbaryl)
Apple seedlings are inoculated with adult females of Panonychus ulmi. After seven days, the infected plants are sprayed with an aqueous emulsion containing 400 ppm of the test compound until they are dripping wet, and cultivated in the greenhouse. After 14 days, they are evaluated. The percentage reduction of the population (% response) is determined by comparing the number of dead mites on the treated plants with those on the untreated plants.

Boophilus microplus = experiment: In vitro effect on Boophilus microplus (Example B9); details: ranking among test substances
Method: Example B9: In vitro effect on Boophilus microplus
Four test series each of 10 engorged female adults of Boophilus microplus are stuck to a plastic plate and covered for 1 hour with a wad of cottonwool soaked with an aqueous suspension or emulsion of the test substance. The test is carried out with concentrations of 100, 32, 10, 3.2, 1.0 and 0.32 ppm. The wad of cottonwool is then removed, and the ticks are incubated for 28 days for the eggs to be laid. The effect on Boophilus microplus is assessed according to the following 5 criteria:
1. Number of dead females (immobile with black discoloration) before egg deposition;
2. Number of ticks surviving for several days, but no eggs laid;
3. Number of cases in which eggs are laid, but nothing is hatched;
5. […] The compounds of formula (I) in this test show the effect described under point 4. […] Even at 1 ppm, a 60 to 90% suppression of the hatching rate is observed.
This test is carried out with both the BIARRA and the ULAM strain, and the results in both cases are identical.

Tetranychus urticae [6] = experiment: Ovicidal effect on Tetranychus urticae (Example B7); type: in vivo; details: bean plants colonized with eggs sprayed with 400 ppm, 6 days at 25° C.
Method: Example B7: Ovicidal effect on Tetranychus urticae
(§2) Young bean plants are inoculated with females of Tetranychus urticae, which are removed again after 24 hours. The plants colonized with eggs are sprayed with an aqueous emulsion containing 400 ppm of active ingredient. The plants are incubated for 6 days at 25° C. and then evaluated. The percentage reduction of the population (% response) is determined by comparing the number of dead eggs, larvae, and adults on the treated plants with those on the untreated plants.

[7] = tested on: Plutella xylostella caterpillars; experiment: Effect on Plutella xylostella caterpillars (Example B5); type: in vivo; details: cabbage plants sprayed with 400 ppm, third stage caterpillars, three days later
Method: Example B5: Effect on Plutella xylostella caterpillars
as §1, with “cabbage” for “soya”, “third” for “first”, “Plutella xylostella” for “Heliothis virescens”, “Three” for “Six”

Tetranychus urticae [8] = experiment: Effect on Tetranychus urticae (Example B3); type: in vivo; details: bean plants, mixed population, sprayed with 400 ppm, 6 days at 25° C.
Method: Example B3: Effect on Tetranychus urticae
as §2, with “a mixed population” for “females”, “urticae and, one day later,” for “urticae, which are removed again after 24 hours. The plants colonized with eggs”, “plants. The instantly claimed compounds show good efficacy against Tetranychus urticae in this test.” for “plants.”

Structure (SMILES): Fc1cccc(F)c1C1=NC(c2ccc(-c3ccc(C(F)(F)F)cc3)cc2)CO1 (stereo not shown) [Example H1-5, 2-(2,6-Difluorophenyl)-4-(4′-trifluoromethylbiphenyl-4-yl)-4,5-dihydro-oxazole]
- percentage reduction of the population (% response) [1]: more than 80%
- % reduction of population (hatching rate of eggs and survival rate of caterpillars) (Heliothis virescens [2]): more than 80%
- percentage reduction of the population (% response) [3]: more than 80%
- % reduction in hatching rate (Heliothis virescens [4]): more than 80%
- activity compared with the other test substances (Dermanyssus gallinae): most active test substance
- percentage reduction of the population (% response) [5]: more than 80%
- activity compared with the other test substances (Boophilus microplus): most active test substance
- percentage reduction of the population (% response) (Tetranychus urticae [6]): more than 80%
- percentage reduction of the population (% response) [7]: more than 80%
- percentage reduction of the population (% response) (Tetranychus urticae [8]): more than 80%
